This assay has as its target T1, Human thrombin (Homo sapiens, UniProt P00734).
T1 construct: conversion of the proenzyme prothrombin to the active enzyme thrombin; purchased Sigma Chem Co T 6769
Description: Test A: determination of thrombin clotting time (TT). Format: biochemical. As to conditions: concentration of inhibitor that doubles the thrombin clotting time for human plasma. As for the experimental part:
Determination of Thrombin Clotting Time (TT)
The inhibitor solution (25 μL) was incubated with plasma (25 μL) for three minutes. Human thrombin (T 6769; Sigma Chem Co) in buffer solution, pH 7.4 (25 μL) was then added and the clotting time measured in an automatic device (KC 10; Amelung).
The clotting time in seconds was plotted against the inhibitor concentration, and the IC50TT was determined by interpolation.
IC50TT is the concentration of inhibitor in the test that doubles the thrombin clotting time for human plasma.

The structures appear in SMILES notation.

`COc1ccc2c(c1)C(O)(C(=O)N1CCC1C(=O)N(C)Cc1ccc(C(=N)N)cc1)CCC2` (single isomer, unassigned) [Example 37, (S)- or (R)-1-Hydroxy-7-methoxytetralin-1-yl-C(O)-Aze-N(Me)-Bzl-4-C(NH2)NH×HOAc] gave an IC50 below 300 nM.
On to `N=C(N)c1ccc(CNC(=O)[C@@H]2CCN2C(=O)C2(O)c3ccccc3-c3ccccc32)cc1` [Example 38, 9-Hydroxyfluoren-9-yl-C(O)-Aze-Pab×HOAc], for which the IC50 is below 300 nM.

The IC50 is the concentration at which inhibition is half-maximal. A lower IC50 goes with greater potency.

For the origin of these results see US6576657B2, “Amidino derivatives and their use as thrombin inhibitors” (AstraZeneca AB, priority 1997, dated 2003).
